Experimental data reported in patent US20130196050A1, “SALTY TASTE ENHANCER” (AJINOMOTO CO., INC., priority 2010, published 2013).

Legend:
[1] = biological target: T1, Human ENaC δ, β and γ subunit (Homo sapiens, UniProt P51168+P51170+P51172); test: Measurement of ENaC activation potency (two electrode voltage clamp current in ENaC-expressing oocyte); format: cell-based; settings: lowest concentration increasing the current value by not less than 10% vs before addition
T1 construct: expressed in transfected cells; host or cells: Xenopus laevis (African clawed frog) oocytes injected with cRNA
T1 sequence (P51172 1-638 isoform P51172-1): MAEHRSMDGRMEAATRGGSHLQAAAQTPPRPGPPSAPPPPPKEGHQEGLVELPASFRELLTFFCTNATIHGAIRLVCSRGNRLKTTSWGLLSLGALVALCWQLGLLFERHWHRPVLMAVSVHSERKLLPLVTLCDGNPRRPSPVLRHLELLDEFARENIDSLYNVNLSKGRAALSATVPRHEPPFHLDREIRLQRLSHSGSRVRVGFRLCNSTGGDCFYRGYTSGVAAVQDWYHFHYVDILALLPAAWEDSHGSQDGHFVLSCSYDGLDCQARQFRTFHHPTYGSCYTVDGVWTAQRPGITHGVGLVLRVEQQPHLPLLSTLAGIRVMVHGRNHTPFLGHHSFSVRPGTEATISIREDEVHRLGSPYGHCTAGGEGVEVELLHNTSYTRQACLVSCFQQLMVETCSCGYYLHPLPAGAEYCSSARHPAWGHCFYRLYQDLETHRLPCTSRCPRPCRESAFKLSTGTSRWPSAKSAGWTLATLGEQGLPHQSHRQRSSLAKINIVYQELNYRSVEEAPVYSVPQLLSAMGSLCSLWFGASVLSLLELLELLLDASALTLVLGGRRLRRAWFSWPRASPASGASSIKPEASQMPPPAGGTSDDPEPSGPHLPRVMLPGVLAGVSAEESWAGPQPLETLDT
T1 sequence (P51168 1-640): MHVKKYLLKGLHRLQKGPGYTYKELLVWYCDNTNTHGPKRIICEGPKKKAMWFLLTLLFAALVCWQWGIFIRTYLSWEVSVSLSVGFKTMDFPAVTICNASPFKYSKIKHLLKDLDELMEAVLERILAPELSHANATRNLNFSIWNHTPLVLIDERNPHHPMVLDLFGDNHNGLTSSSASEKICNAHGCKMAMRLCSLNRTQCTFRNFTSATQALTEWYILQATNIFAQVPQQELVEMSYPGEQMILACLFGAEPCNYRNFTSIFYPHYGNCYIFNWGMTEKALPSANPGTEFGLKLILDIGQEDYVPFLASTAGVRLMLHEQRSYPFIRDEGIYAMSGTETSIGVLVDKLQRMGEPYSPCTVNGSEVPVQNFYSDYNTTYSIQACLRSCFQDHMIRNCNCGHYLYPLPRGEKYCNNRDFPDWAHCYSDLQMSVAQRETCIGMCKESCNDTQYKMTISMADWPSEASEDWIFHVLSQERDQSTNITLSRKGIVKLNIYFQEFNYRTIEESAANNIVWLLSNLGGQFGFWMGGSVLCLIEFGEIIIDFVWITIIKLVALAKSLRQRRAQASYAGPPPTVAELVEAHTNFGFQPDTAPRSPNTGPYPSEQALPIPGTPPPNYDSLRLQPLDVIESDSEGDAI
T1 sequence (P51170 1-649): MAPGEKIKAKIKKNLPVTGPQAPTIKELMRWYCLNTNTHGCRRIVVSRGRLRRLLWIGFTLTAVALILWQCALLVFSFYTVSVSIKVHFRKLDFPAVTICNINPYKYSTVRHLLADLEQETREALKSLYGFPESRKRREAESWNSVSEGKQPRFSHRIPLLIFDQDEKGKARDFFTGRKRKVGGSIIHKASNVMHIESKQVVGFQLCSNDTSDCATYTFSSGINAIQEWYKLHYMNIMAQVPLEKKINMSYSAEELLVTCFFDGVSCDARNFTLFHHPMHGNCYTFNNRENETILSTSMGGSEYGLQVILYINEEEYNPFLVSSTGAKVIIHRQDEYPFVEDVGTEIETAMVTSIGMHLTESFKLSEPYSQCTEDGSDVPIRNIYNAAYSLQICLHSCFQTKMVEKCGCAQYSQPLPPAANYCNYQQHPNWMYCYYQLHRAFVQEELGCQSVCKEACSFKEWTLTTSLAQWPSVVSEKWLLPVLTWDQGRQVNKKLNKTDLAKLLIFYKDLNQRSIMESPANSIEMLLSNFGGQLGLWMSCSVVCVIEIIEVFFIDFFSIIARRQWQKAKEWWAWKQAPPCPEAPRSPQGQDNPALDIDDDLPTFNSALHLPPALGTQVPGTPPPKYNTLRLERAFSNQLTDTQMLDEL
Procedure: ENaC activation current value, namely, the inward current in ENaC-expressing oocyte was measured as follows.
According to the method described in Motonao Nakamura, Takao Shimizu: Experiment of African clawed frog oocyte, Experimental Medicine Vol. 11, No. 3, 224-232 (1993), oocyte was collected from African clawed frog, […], and the current value was measured by a Two Electrode Voltage Clamp technique. In the present invention, ND96 (96 mM NaCl, 2 mM KCl, 1 mM MgCl2, 5 mM Hepes, 1.8 mM CaCl2, pH 7.6) was used instead of MBS buffer in the above-mentioned document. Injector NANOLITER 2000 manufactured by World Precision Instruments was used for microinjection, OpusXpress 6000A manufactured by Molecular Devices was used for current value measurement by a Two Electrode Voltage Clamp technique, and Clampfit 10.2 software manufactured by Molecular Devices was used for data analysis.
Human ENaC δ, β and γ subunit genes shown by SEQ ID NOs: 1, 2 and 3, respectively, in the Sequence Listing were each cloned into a plasmid vector, and used as a template DNA for cRNA synthesis. cRNA was synthesized using MEGAscript kit manufactured by Ambion and according to the method of the manual of the manufacturer.
A mixture of the same amount of ENaC δ subunit cRNA (0.4 to 0.8 μg/μL), and β and γ subunits cRNA (0.4 μg/μL) was injected into the oocyte of African clawed frog at 27.6 nL per oocyte, and the oocyte was cultured for 16 hours to 72 hours. Thereafter, the oocyte was set on a measuring apparatus OpusXpress 6000A, the electrodes were inserted into the oocyte, the voltage was clamped at a level lower by −30 mV than the resting membrane potential by a Two Electrode Voltage Clamp technique, and the current value was measured.
To measure the ENaC activation potency, oocyte was stimulated with each test compound, and the minimum effective dose (hereinafter to be abbreviated as MED) of the compound at the time point when the electric current started to increase was measured. In this case, the minimum effective dose of the stimulation compound that increased the current value by not less than 10%, as compared to the current value before addition of the compound and without stimulation, was taken as MED. A smaller MED means higher ENaC activation potency.
Each test compound was directly dissolved in ND96, or first dissolved in dimethyl sulfoxide (DMSO) to 100 mM, and then prepared by diluting the solution with ND96 to a concentration used for the evaluation. The concentration of the test compound in ND96 was prepared to various concentrations within the range of 0.1 nM to 300 μm.
ND96 as a perfusion fluid was flowed at a rate of 0.5 mL/min through the measuring apparatus OpusXpress 6000A on which ENaC-expressing oocyte was set, the perfusion fluid was temporarily stopped every 3 minutes to add a test compound solution (0.25 mL) dissolved in ND96 at a rate of 0.5 mL/minute. In this way, the test compound was contacted with ENaC-expressing oocyte, and whether ENaC is activated by the compound was examined by measuring the current value. After addition of the test compound, feeding of the perfusion fluid was resumed to wash away the compound to be ready for the next addition of the compound.
The compound was added successively from a low concentration to a high concentration to stimulate ENaC-expressing oocyte. The concentrations actually added was, for example, 1 nM, 3 nM, 10 nM, 30 nM, 100 nM, 300 nM; 1 μM, 3 μM, 10 μm, 30 μm, 100 μm, 300 μm; 1.2 μM, 6 μM, 30 μm, 150 μm of one test compound. The compound was added from low concentrations to high concentrations at 3 minute intervals. The first compound was added from a low concentration to a high concentration, then the second and the third compounds were similarly added successively to the same oocyte, and changes in the current value were measured. The current value was continuously measured from the start to the end of the experiment. […]

ENaC β subunit = biological target: T2, ENaC β subunit (Homo sapiens, UniProt P51168); settings: literature statement; cited from earlier work
T2 sequence (P51168 1-640): T1 sequence (P51168 1-640)
T2 sequence (P51170 1-649 partner): T1 sequence (P51170 1-649)
T2 sequence (P37088 1-669 partner): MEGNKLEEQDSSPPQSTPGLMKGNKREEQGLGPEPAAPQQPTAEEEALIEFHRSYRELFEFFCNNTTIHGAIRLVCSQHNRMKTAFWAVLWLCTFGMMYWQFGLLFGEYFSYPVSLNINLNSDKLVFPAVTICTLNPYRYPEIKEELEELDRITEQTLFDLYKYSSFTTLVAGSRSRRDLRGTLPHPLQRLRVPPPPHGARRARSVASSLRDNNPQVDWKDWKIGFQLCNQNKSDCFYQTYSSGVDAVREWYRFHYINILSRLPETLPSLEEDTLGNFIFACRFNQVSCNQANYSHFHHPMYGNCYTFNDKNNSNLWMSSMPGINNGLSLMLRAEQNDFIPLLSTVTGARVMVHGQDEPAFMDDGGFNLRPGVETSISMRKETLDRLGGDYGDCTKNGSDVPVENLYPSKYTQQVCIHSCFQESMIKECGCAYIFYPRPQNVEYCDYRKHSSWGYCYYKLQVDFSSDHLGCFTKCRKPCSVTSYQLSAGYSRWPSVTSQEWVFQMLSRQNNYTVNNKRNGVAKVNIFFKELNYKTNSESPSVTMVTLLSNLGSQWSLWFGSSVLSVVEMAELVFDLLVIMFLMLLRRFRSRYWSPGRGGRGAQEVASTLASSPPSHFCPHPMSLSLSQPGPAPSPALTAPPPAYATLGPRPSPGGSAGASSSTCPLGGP

| MED value (minimum effective dose) [1] [µM] | SMILES | action on ENaC (ENaC β subunit) |
| --- | --- | --- |
| 3 | Cc1cc(O)c(C(=O)NCCc2c[nH]c3ccccc23)c(O)c1 [Example 124] | – |
| 1 | O=C(NCCc1c[nH]c2ccccc12)c1c(O)cc(O)cc1O [Example 125] | – |
| – | Cc1cccc2[nH]cc(SC(CC(C)C)C(=O)NCCO)c12 (stereo not drawn) [Example S3969, N-(2-hydroxyethyl)-4-methyl-2-(4-methyl-1H-indol-3-ylthio)pentanamide] | stimulant (activator) of ENaC that acts on β subunit |
